In patent publication US9951039B2, “Pyrimidines for treatment of bacterial infections” (The Hong Kong Polytechnic University, priority 2016, dated 2018):
In brackets after ≈: the same amount, converted by molar mass. Like-named read-outs stand apart in the source and are kept apart here.

Tests used:
[1] = system: E. coli strain ATCC25922; assay: MIC, broth microdilution antimicrobial susceptibility test (CLSI); assay type: cell-based; conditions: Escherichia coli, ATCC25922; E. coli ATCC 25922; growth inhibited by ≥90%, 18 h; read-out: MIC^c: Minimum inhibitory concentration against E. coli
Description: (§1) This example illustrates the evaluation of 2,4,6-trisubstituted pyrimidines 14 for their antimicrobial activities against the Gram positive S. aureus strain ATCC29213 and the Gram negative E. coli strain ATCC25922 by measuring their MIC, which is the lowest concentration of an antimicrobial agent that prevents visible growth of a microorganism in a broth dilution susceptibility test according to the standard method approved by the Clinical and Laboratory Standards Institute (CLSI) guidelines.^21
(§2) Procedure of Antimicrobial susceptibility test: The MIC value of compounds was measured in the antimicrobial susceptibility test using the broth microdilution procedure in accordance with the CLSI guidelines.^21 Cation-adjusted Mueller Hinton broth (CA-MHB) was used for all the S. aureus strains in the assay. Cells in exponential phase of growth were diluted to approximately 5×10^5 cfu/mL. Stock solutions of each compound were freshly dissolved in dimethyl sulfoxide (DMSO). Then, serial dilutions of each compound in CA-MHB medium were added into 96-well microplate. The final percentage of DMSO in the assay was 1%. Control experiments were performed with 1% DMSO instead of the compound solution. After being incubated at 37° C. for 18 h, OD600 value of cells was measured on a microplate reader and the percentage of bacterial cell inhibition with respect to controls was calculated. The MIC value was defined as the lowest compound concentration at which the growth of bacteria was inhibited by ≥90%. Three independent assays were performed for each compound.

[2] = system: S. aureus strain ATCC29213; assay: as above; assay type: cell-based; conditions: for MIC: Staphylococcus aureus
Description: as §1, §2

[3] = system: S. aureus ATCC BAA-1717 (methicillin resistant); assay: MIC against clinically isolated strain 2; assay type: cell-based; conditions: Staphylococcus aureus, ATCCBAA1717
Experimental: as §2
(§3) Results: Three compounds, namely 14av_amine16, 14dv_amine16 and 14dv_amine06, were selected to be tested against nine in-house clinically isolated bacterial strains including S. aureus ATCC29247, which is an ampicillin resistant strain, S. aureus ATCC BAA-41, ATCC BAA-1717, ATCC BAA-1720, ATCC 43300 which are methicillin resistant strains and four USA300 strains, (#417, #757, #1799 and #2690), which are the predominant strain type of community-associated MRSA strains in the United States.

[4] = system: USA300 #2690 (community-associated MRSA); assay: MIC against clinically isolated strain 9; assay type: cell-based, S. aureus; conditions: Staphylococcus aureus
Experimental: as §2, §3

[5] = system: G. mellonella larvae; assay: Toxicity in G. mellonella larvae; assay type: in vivo, Galleria mellonella; conditions: 0, 50 and 100 mg/Kg in 50% PEG in saline, no MRSA inoculation, 48-hours period
Experimental: Procedure: Compound 14av_amine16 was tested in a Galleria mellonella model, which are an easy and inexpensive in vivo model with no ethical constraints for investigating antibacterial activity of a compound.^22 The G. mellonella model of S. aureus infection was used as previously described.^24 Briefly, 1 mL aliquots of overnight cultures of S. aureus 43300 were pelleted by centrifugation and washed with sterile PBS before being resuspended in 100 μL of PBS. G. mellonella larvae (N=10) that weighed 200-300 mg were then inoculated with 10 μL of S. aureus (2.5×10^6 CFU) into the last left proleg. Larvae were then treated with compounds at 1 h before bacterial inoculation. Treatments were performed in the same manner as infection, except that compounds were injected into the next left proleg moving toward the head of the larvae. […] Data was analyzed for statistical significance using a log rank and χ square test with 1 degree of freedom. Various concentrations of compound 14av_amine16 dissolved in 50% PEG in saline (0 mg/Kg, 50 mg/Kg and 100 mg/Kg) were injected into the hemocoel of last-instar G. mellonella larvae and survival was scored over time.
To examine the feasibility of using G. mellonella for compound 14av_amine16 toxicity study, the ability of compound 14av_amine16 to kill G. mellonella larvae was examined.

[6] = Compound solubility observed in aqueous medium of GTPase assay; assay type: physicochemical; conditions: higher concentration (>80 μM) causes precipitation in aqueous medium
Description: Nonetheless, it seems very likely that compound 14av_amine16 suppresses the self-polymerization of FtsZ protein, probably via disrupting the GTPase hydrolysis activity of FtsZ protein.

[7] = system: FtsZ GFP fusion stain of B. subtilis 168; assay: Z-ring visualization, GFP tagged FtsZ in B. subtilis 168; assay type: cell-based; conditions: 6 μM test compound, 4 hours
Experimental: Procedure: A single colony of FtsZ GFP fusion stain of B. subtilis 168 was grown in 5 ml 2×TY medium with 35 mg/L chloramphenicol for 14 hours at 30° C. An overnight culture was then diluted to an OD600 of 0.01 by 2×TY medium containing the absence (DMSO) and presence of 6 μM test compounds and 40 μM of IPTG, it grew at 30° C. after 4 hours of incubation; the cells were pelleted and re-suspended in 300 μL PBS buffer containing 1% agarose. 10 μL suspensions were then placed on the microscopic slide. The morphology of bacterial cell was observed under a fluorescent and phase-contrast microscope at 40× magnification, using the software of Olympus FSX100® Bio Imaging Navigator to capture images.

SMILES: CCC(CC)c1cc(CCN2CCCN(Cc3ccc(C(F)(F)F)cc3)CC2)nc(-c2ccncc2)n1 [Compound 14av_amine16, 1-(2-(6-(pentan-3-yl)-2-(pyridin-4-yl)pyrimidin-4-yl)ethyl)-4-(4-(trifluoromethyl)benzyl)-1,4-diazepane]
- MIC [1]: > 125 µM
- MIC^c/MIC^b: Selectivity index ([2]; E. coli ATCC 25922 MIC over S. aureus 29213 MIC): >15
- MIC ([2]; ATCC29213, S. aureus 29213, growth inhibited by ≥90%, 18 h, read-out: MIC^b: Minimum inhibitory concentration against S. aureus): 8 µM (≈ 4.09 µg/mL)
- MIC ([2]; S. aureus ATCC29213, read-out: MIC against S. aureus): 5 to 8 µM (≈ 2.56 to 4.09 µg/mL)
- MIC [3]: 8 µM (≈ 4.09 µg/mL)
- MIC [4]: 12 µM (≈ 6.14 µg/mL)
- ability to kill G. mellonella larvae (toxicity) [5]: did not kill G. mellonella larvae
- compound solubility [6]: poor compound solubility
- Z-ring localization [7]: obvious mislocalization of the Z-ring
